# According to patent US7265099B1, “Use of chemical chelators as reversal agents for drug-induced neuromuscular block” (Organon N.V., priority 1999, dated 2007):
# Marks after values point to notes of the source that are not given here.
# Legend:
# [1] = test system: steady-state neuromuscular block induced by rocuronium bromide (Roc); experiment: Reversal of neuromuscular blockade in vivo, anaesthetized guinea pig, rocuronium; settings: Roc infusion, 85–90% block, anaesthetized guinea pigs, i.v. reversal agent; mean
# Description: (§1) Male Dunkin-Hartley guinea pigs (bodyweight: 600–900 g) were anaesthetized by i.p. administration of 10 mg/kg pentobarbitone and 1000 mg/kg urethane. After tracheotomy, the animals were artificially ventilated using a Harvard small animal ventilator. A catheter was placed into the carotid artery for continuous monitoring of arterial blood pressure and the taking of blood samples for blood gas analysis. Heart rate was derived from the blood pressure signal. The sciatic nerve was stimulated (rectangular pulses of 0.5 ms duration at 10 s (0.1 Hz) intervals at a supramaximal voltage, using a Grass S88 Stimulator) and the force of M. gastrocnemius contractions was measured using a Grass FT03 force-displacement transducer. Contractions, blood pressure and heart rate were recorded on a multichannel Grass 7D recorder. Catheters were placed in both jugular veins. One catheter was used for the continuous infusion of a neuromuscular blocking agent. The infusion rate of the neuromuscular blocking agent was increased until a steady-state block of 85–90% was obtained. The other catheter was used for administration of increasing doses of the reversal agent. During continuous infusion of the neuromuscular blocking agent, single doses of increasing concentration of reversal agent were given. At the end of the experiment, the measured force of muscle contractions was plotted against the concentration of reversal agent, and using regression analysis techniques, the 50% reversal concentration was calculated.
# Reversal of neuromuscular block in vivo, induced by rocuronium bromide, was carried out as described in Example 5.
# [2] = test system: steady-state neuromuscular block induced by vecuronium bromide (Vec); experiment: Reversal of neuromuscular blockade in vivo, anaesthetized guinea pig, vecuronium; settings: Vec infusion, 85–90% block, anaesthetized guinea pigs, i.v. reversal agent; mean
# Description: as §1
# [3] = test system: steady-state neuromuscular block induced by pancuronium bromide (Pan); experiment: Reversal of neuromuscular blockade in vivo, anaesthetized guinea pig, pancuronium; settings: Pan infusion, 85–90% block, anaesthetized guinea pigs, i.v. reversal agent; mean
# Description: as §1
# [4] = test system: steady-state neuromuscular block induced by mivacurium chloride (Miv); experiment: Reversal of neuromuscular blockade in vivo, anaesthetized guinea pig, mivacurium; settings: Miv infusion, 85–90% block, anaesthetized guinea pigs, i.v. reversal agent; mean
# Description: as §1
# [5] = test system: steady-state neuromuscular block induced by atracurium besilate (Atr); experiment: Reversal of neuromuscular blockade in vivo, anaesthetized guinea pig, atracurium; settings: Atr infusion, 85–90% block, anaesthetized guinea pigs, i.v. reversal agent; mean
# Description: as §1
# [6] = test system: steady-state neuromuscular block induced by cis-atracurium (Cis-Atr); experiment: Reversal of neuromuscular blockade in vivo, anaesthetized guinea pig, cis-atracurium; settings: Cis-Atr infusion, 85–90% block, anaesthetized guinea pigs, i.v. reversal agent; mean
# Description: as §1
# [7] = test system: steady-state neuromuscular block induced by tubocurarine chloride (T-C); experiment: Reversal of neuromuscular blockade in vivo, anaesthetized guinea pig, tubocurarine; settings: T-C infusion, 85–90% block, anaesthetized guinea pigs, i.v. reversal agent; mean
# Description: as §1
# [8] = test system: steady-state neuromuscular block induced by suxamethonium chloride (Sux; succinylcholine); experiment: Reversal of neuromuscular blockade in vivo, anaesthetized guinea pig, suxamethonium; settings: Sux infusion, 85–90% block, anaesthetized guinea pigs, i.v. reversal agent; mean
# Description: as §1
# [9] = test system: steady-state neuromuscular block induced by rapacuronium bromide (Rap; Org 9487); experiment: Reversal of neuromuscular blockade in vivo, anaesthetized guinea pig, rapacuronium; settings: Rap infusion, 85–90% block, anaesthetized guinea pigs, i.v. reversal agent; mean
# Description: as §1
# [10] = test system: neuromuscular block induced by rocuronium in isolated mouse hemidiaphragm; experiment: Reversal of neuromuscular block in vitro: isolated mouse hemidiaphragm preparation; settings: for Mouse hemidiaphragm: maximum reversal (%) / concentration of chemical chelator at maximum reversal: 3.1 μM rocuronium; for concentration of chemical chelator at maximum reversal: mouse hemidiaphragm; for Reversal of the neuromuscular blocking action of rocuronium (in words): rocuronium-induced block
# Description: Hemidiaphragms, with phrenic nerves attached, were removed from euthanized male mice (Institute of Cancer Research; bodyweight: 20–60 g). The preparations were mounted on a tissue holder and placed in a tissue bath filled with a modified Krebs-Henseleit solution (composition: 118 mM NaCl, 30 mM NaHCO3, 5 mM KCl, 1 mM KH2PO4, 1 mM MgSO4, 30 mM glucose and 2.5 mM CaCl2) at 37° C. and bubbled with 95% oxygen and 5% carbondioxide. One end of the preparation was connected with a siliconized silk suture to a Grass FT03 force-displacement transducer. An initial force of 10 mN was applied. The phrenic nerve was placed on a bipolar platinum electrode and was stimulated with rectangular pulses of 0.2 ms duration at 20 s (0.05 Hz) intervals at a supramaximal voltage, using a Grass S88 Stimulator. Contractions were recorded on a four channel Grass 79D recorder.
# Increasing amounts of reversal agent were then administered into the bath at intervals of 10 min. The % maximum reversal was established. At the end of the experiment, the measured muscle contractions force was plotted against the concentration of reversal agent, and using regression analysis techniques, the 50% reversal concentration was calculated.
# After induction of neuromuscular block by rocuronium, the % maximum reversal produced by the addition of a number of γ-cyclodextrin derivatives (compounds 11–16), a cyclic octasaccharide comprising 4 rhamnosyl-mannopyranosyl units (compound 24), or a number of paracyclophane derivatives (compounds 17–21 and 23) are presented in Table II.
# Reversal of neuromuscular block in vitro was carried out using the mouse hemidiaphragm preparation as described in Example 6.
# [11] = Complexation of rocuronium bromide by chemical chelators (1H NMR, 303 K); type: binding; settings: NMR spectroscopy at 303 K, D2O, curve fitting of proton chemical shift changes
# Description: All the ^1H spectra (303 K) were recorded at 400.13 MHz with 128 scans, sw=12 ppm, TD=32 k and zero filled to 64 k real points in processing. All experiments were measured at 303K.
# Determination of Stoichiometry
# Stock solutions of rocuronium bromide and γ-cyclodextrin (15) were prepared, both with a concentration of 6.02 mM. From these, sixteen solutions were prepared (with the mole % of rocuronium ranging from 0-100) by taking aliquots of 0–800 μl of the rocuronium bromide solution. Aliquots of the γ-cyclodextrin solution, 800–0 μl were added to make the solution a total volume of 800 μl and 100 mole % (i.e. 6.02 mM of [rocuronium bromide+γ-cyclodextrin]). ^1H-NMR spectra were recorded as described above.
# If the chemical shift change of H9α in rocuronium bromide is defined as Δδ then a plot of [Δδ*(mole % rocuronium bromide)] vs. [mole % rocuronium bromide] gives a so called Job Plot by the method of continuous variation (Connors K. A.: Binding constants, The measurement of Molecular Complex Stability; Wiley-Interscience; New York, 1987, pp 24–28). The maximum in this plot is indicative for the stoichiometry of the complex.
# Determination of the Association Constants
# A stock solution of rocuronium bromide: 0.821 mM in D2O was prepared. […]
# ^1H NMR spectra were recorded as descibed above. […]
Compound,Dose (ED50) producing 50% reversal of steady-state neuromuscular block [1],Dose (ED50) producing 50% reversal of steady-state neuromuscular block [2],Dose (ED50) producing 50% reversal of steady-state neuromuscular block [3],Dose (ED50) producing 50% reversal of steady-state neuromuscular block [4],Dose (ED50) producing 50% reversal of steady-state neuromuscular block [5],Dose (ED50) producing 50% reversal of steady-state neuromuscular block [6],Dose (ED50) producing 50% reversal of steady-state neuromuscular block [7],Dose (ED50) producing 50% reversal of steady-state neuromuscular block [8],Dose (ED50) producing 50% reversal of steady-state neuromuscular block [9],Mouse hemidiaphragm: maximum reversal (%) [10],concentration of chemical chelator at maximum reversal [10],"Association constant (Ka, M^−1) of 1:1 complex of rocuronium bromide and cyclic host compound [11]",Reversal of the neuromuscular blocking action of rocuronium (in words) [10]
2-hydroxypropyl-γ-CD (DS = 4) [Compound 16],12 (3) μmol.kg^−1,123 (3) μmol.kg^−1,440 (3) μmol.kg^−1,1674 (2) μmol.kg^−1,828 (2) μmol.kg^−1,878 (2) μmol.kg^−1,909 (2) μmol.kg^−1,1340 (2) μmol.kg^−1,134 (3) μmol.kg^−1,71%,360 µM,–,–
"OC[C@H]1O[C@@H]2O[C@H]3[C@H](O)[C@@H](O)[C@@H](O[C@H]4[C@H](O)[C@@H](O)[C@@H](O[C@H]5[C@H](O)[C@@H](O)[C@@H](O[C@H]6[C@H](O)[C@@H](O)[C@@H](O[C@H]7[C@H](O)[C@@H](O)[C@@H](O[C@H]8[C@H](O)[C@@H](O)[C@@H](O[C@H]1[C@H](O)[C@H]2O)O[C@@H]8CO)O[C@@H]7CO)O[C@@H]6CO)O[C@@H]5CO)O[C@@H]4CO)O[C@@H]3CO [Compound 9, β-cyclodextrin]",20 (3) μmol.kg^−1,636 (1) μmol.kg^−1,1050 (2) μmol.kg^−1,–,–,–,–,–,358 (3) μmol.kg^−1,–,–,"3,100–3,900* M^−1",–
"OC[C@H]1O[C@@H]2O[C@H]3[C@H](O)[C@@H](O)[C@@H](O[C@H]4[C@H](O)[C@@H](O)[C@@H](O[C@H]5[C@H](O)[C@@H](O)[C@@H](O[C@H]6[C@H](O)[C@@H](O)[C@@H](O[C@H]7[C@H](O)[C@@H](O)[C@@H](O[C@H]8[C@H](O)[C@@H](O)[C@@H](O[C@H]9[C@H](O)[C@@H](O)[C@@H](O[C@H]1[C@H](O)[C@H]2O)O[C@@H]9CO)O[C@@H]8CO)O[C@@H]7CO)O[C@@H]6CO)O[C@@H]5CO)O[C@@H]4CO)O[C@@H]3CO [Compound 15, γ-cyclodextrin]",4 (3) μmol.kg^−1,75 (4) μmol.kg^−1,186 (4) μmol.kg^−1,1690 (2) μmol.kg^−1,2793 (4) μmol.kg^−1,1710 (2) μmol.kg^−1,630 (2) μmol.kg^−1,1189 (2) μmol.kg^−1,57 (3) μmol.kg^−1,94%,144 µM,"10,000–20,400# M^−1",efficiently blocked
carboxyethyl-γ-CD (DS = 3.8) [Compound 14],7 (3) μmol.kg^−1,25 (3) μmol.kg^−1,141 (3) μmol.kg^−1,399 (2) μmol.kg^−1,421 (2) μmol.kg^−1,1558 (3) μmol.kg^−1,294 (2) μmol.kg^−1,1294 (2) μmol.kg^−1,43 (3) μmol.kg^−1,87%,144 µM,–,efficiently blocked
carboxymethyl-γ-CD (DS = 3.2) [Compound 13],25 (4) μmol.kg^−1,30 (3) μmol.kg^−1,641 (4) μmol.kg^−1,964 (3) μmol.kg^−1,990 (2) μmol.kg^−1,893 (2) μmol.kg^−1,431 (2) μmol.kg^−1,999 (2) μmol.kg^−1,227 (2) μmol.kg^−1,88%,180 µM,–,efficiently blocked
γ-cyclodextrin-phospate sodium salt (DS = 3) [Compound 11],64 (3) μmol.kg^−1,67 (3) μmol.kg^−1,197 (2) μmol.kg^−1,292 (2) μmol.kg^−1,113 (2) μmol.kg^−1,204 (2) μmol.kg^−1,160 (2) μmol.kg^−1,160 (2) μmol.kg^−1,80 (3) μmol.kg^−1,34%,360 µM,–,–
